Measured values as given in ChEMBL document CHEMBL5223181, “Incorporation of an Isohexide Subunit Improves the Drug-like Properties of Bioactive Compounds” (ACS Med Chem Lett, 2023).
Values after ≈ are worked out from the molar mass of the structure shown.

Tests used:
[1] = Prodrug conversion in C57BL/6 mouse plasma assessed as half life of (S)-2-(2-chloro-6-methylbenzamido)-3-(4-(1,3,6-trimethyl-2,4-dioxo-1,2,3,4-tetrahydropyrimidin-5-yl)phenyl)propanoic acid metabolite at 63.5 mg/kg,po and measured upto 24 hrs by LC-MS/MS analysis; assay type: ADME, organism-based; details: in vivo
[2] = Prodrug conversion in C57BL/6 mouse colon assessed as (S)-2-(2-chloro-6-methylbenzamido)-3-(4-(1,3,6-trimethyl-2,4-dioxo-1,2,3,4-tetrahydropyrimidin-5-yl)phenyl)propanoic acid metabolite level at 100 mg/kg, po and measured after 3 hrs LC-MS/MS analysis; assay type: ADME, organism-based; details: in vivo
[3] = Prodrug conversion in C57BL/6 mouse plasma assessed as(S)-2-(2-chloro-6-methylbenzamido)-3-(4-(1,3,6-trimethyl-2,4-dioxo-1,2,3,4-tetrahydropyrimidin-5-yl)phenyl)propanoic acid metabolite level at 100 mg/kg, po and measured after 3 hrs LC-MS/MS analysis; assay type: ADME, organism-based; details: in vivo
[4] = Solubility in simulated gastric fluid at pH 1.2 at 30 uM incubated for 90 mins by HPLC-UV analysis; assay type: ADME
[5] = Prodrug conversion in C57BL/6 mouse plasma assessed as Tmax of (S)-2-(2-chloro-6-methylbenzamido)-3-(4-(1,3,6-trimethyl-2,4-dioxo-1,2,3,4-tetrahydropyrimidin-5-yl)phenyl)propanoic acid metabolite at 63.5 mg/kg,po and measured upto 24 hrs by LC-MS/MS analysis; assay type: ADME, organism-based; details: in vivo
[6] = Prodrug conversion in C57BL/6 mouse plasma assessed as Cmax of (S)-2-(2-chloro-6-methylbenzamido)-3-(4-(1,3,6-trimethyl-2,4-dioxo-1,2,3,4-tetrahydropyrimidin-5-yl)phenyl)propanoic acid metabolite at 63.5 mg/kg,po and measured upto 24 hrs by LC-MS/MS analysis; assay type: ADME, organism-based; set-up: dose 63.5 mg/kg, time < 24 hrs, route po; details: in vivo
[7] = Solubility of compound in PBS at pH 7.4 at 30 uM incubated for 90 mins by HPLC-UV analysis; assay type: physicochemical
[8] = Prodrug conversion in C57BL/6 mouse plasma assessed as (S)-2-(2-chloro-6-methylbenzamido)-3-(4-(1,3,6-trimethyl-2,4-dioxo-1,2,3,4-tetrahydropyrimidin-5-yl)phenyl)propanoic acid metabolite level at 100 mg/kg, po and measured after 6 hrs LC-MS/MS analysis; assay type: ADME, organism-based; details: in vivo
[9] = Prodrug conversion in C57BL/6 mouse plasma assessed as AUC (0 to 6 hrs) of (S)-2-(2-chloro-6-methylbenzamido)-3-(4-(1,3,6-trimethyl-2,4-dioxo-1,2,3,4-tetrahydropyrimidin-5-yl)phenyl)propanoic acid metabolite at 63.5 mg/kg,po and measured upto 24 hrs by LC-MS/MS analysis; assay type: ADME, organism-based; set-up: time < 24 hrs, dose 63.5 mg/kg, route po; details: in vivo
[10] = Dissociation constant, pKa of the compound at 10 mM incubated for 16 hrs with shaking by HPLC-UV analysis; assay type: physicochemical
[11] = Apparent permeability of compound at 20 mM and measured after 16 hrs by PAMPA assay; assay type: ADME
[12] = Octanol/water partition coefficient, logD of the compound at pH 7.4 at 10 mM incubated for 16 hrs with shaking by HPLC-UV analysis; assay type: physicochemical
[13] = Prodrug conversion in C57BL/6 mouse colon assessed as (S)-2-(2-chloro-6-methylbenzamido)-3-(4-(1,3,6-trimethyl-2,4-dioxo-1,2,3,4-tetrahydropyrimidin-5-yl)phenyl)propanoic acid metabolite level at 100 mg/kg, po and measured after 6 hrs LC-MS/MS analysis; assay type: ADME, organism-based; details: in vivo
[14] = Solubility in simulated intestinal fluid at pH 6.8 at 30 uM incubated for 90 mins by HPLC-UV analysis; assay type: ADME
[15] = Apparent permeability across apical to basolateral side in dog MDCK-MDR1 cells at 5 uM incubated for 60 mins by LC-MS/MS analysis; assay type: ADME, cell-based, Canis lupus familiaris
[16] = Oral bioavailability in C57BL/6 mouse plasma at 63.5 mg/kg and measured upto 24 hrs by LC-MS/MS analysis; assay type: ADME, organism-based
[17] = Cmax in C57BL/6 mouse at 80 mg/kg, po and measured upto 24 hrs by LC-MS/MS analysis; assay type: ADME, organism-based; set-up: time < 24 hrs, dose 80 mg/kg, route po; details: in vivo
[18] = biological target: Epidermal growth factor receptor (Homo sapiens, UniProt P00533); experiment: Inhibition of human EGFR
Sequence of Epidermal growth factor receptor (P00533 whole entry): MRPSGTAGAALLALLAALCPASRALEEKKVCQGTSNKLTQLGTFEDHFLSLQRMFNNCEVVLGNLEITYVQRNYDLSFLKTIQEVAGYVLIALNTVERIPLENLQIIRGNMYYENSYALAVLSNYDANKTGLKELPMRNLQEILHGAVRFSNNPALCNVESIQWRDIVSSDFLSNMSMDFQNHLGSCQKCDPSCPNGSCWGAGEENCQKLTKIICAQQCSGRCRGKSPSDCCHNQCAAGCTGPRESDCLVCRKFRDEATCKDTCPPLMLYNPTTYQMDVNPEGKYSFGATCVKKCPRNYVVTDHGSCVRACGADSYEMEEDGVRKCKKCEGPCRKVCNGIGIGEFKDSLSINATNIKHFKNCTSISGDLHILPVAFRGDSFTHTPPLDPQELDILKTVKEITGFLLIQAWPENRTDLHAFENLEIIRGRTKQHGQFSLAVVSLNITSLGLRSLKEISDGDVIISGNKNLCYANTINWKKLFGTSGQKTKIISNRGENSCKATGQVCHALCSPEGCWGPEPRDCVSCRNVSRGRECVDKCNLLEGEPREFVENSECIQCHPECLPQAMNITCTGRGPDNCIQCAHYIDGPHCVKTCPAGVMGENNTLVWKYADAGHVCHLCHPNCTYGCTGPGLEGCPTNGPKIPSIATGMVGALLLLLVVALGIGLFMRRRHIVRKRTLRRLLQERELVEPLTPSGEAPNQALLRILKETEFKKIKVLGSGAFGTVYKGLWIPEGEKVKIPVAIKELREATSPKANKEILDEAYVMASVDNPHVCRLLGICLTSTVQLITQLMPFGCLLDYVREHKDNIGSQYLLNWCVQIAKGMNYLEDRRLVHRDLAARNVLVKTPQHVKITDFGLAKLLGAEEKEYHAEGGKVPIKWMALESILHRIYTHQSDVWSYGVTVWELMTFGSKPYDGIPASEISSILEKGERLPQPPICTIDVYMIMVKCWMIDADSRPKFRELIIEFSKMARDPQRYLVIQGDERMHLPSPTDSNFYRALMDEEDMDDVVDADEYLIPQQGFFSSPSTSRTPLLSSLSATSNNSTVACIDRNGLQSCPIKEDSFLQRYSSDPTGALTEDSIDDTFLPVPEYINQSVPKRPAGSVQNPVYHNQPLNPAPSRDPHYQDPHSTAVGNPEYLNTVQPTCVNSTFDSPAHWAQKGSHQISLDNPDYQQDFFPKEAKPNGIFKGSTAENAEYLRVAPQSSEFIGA

[19] = Terminal half life in C57BL/6 mouse at 80 mg/kg, po and measured upto 24 hrs by LC-MS/MS analysis; assay type: ADME, organism-based; details: in vivo, read-out: beta t1/2 (converted)
[20] = Terminal half life in C57BL/6 mouse at 61 mg/kg, po and measured upto 24 hrs by LC-MS/MS analysis; assay type: ADME, organism-based; details: in vivo, read-out: beta t1/2 (converted)
[21] = Solubility of compound in PBS at pH 9.0 at 30 uM incubated for 90 mins by HPLC-UV analysis; assay type: physicochemical
[22] = Solubility in simulated intestinal fluid at pH 6.8 at 30 uM incubated for 90 mins in presence of 0.5% SDS by HPLC-UV analysis; assay type: ADME
[23] = AUC (0-t) in C57BL/6 mouse at 80 mg/kg, po and measured for 4 to 10 hrs by LC-MS/MS analysis; assay type: ADME, organism-based; set-up: time upper 10 hrs, dose 80 mg/kg, time lower 4 hrs, route po; details: in vivo
[24] = AUC (0-infinity) in C57BL/6 mouse at 80 mg/kg, po and measured upto 24 hrs by LC-MS/MS analysis; assay type: ADME, organism-based; set-up: time < 24 hrs, dose 80 mg/kg, route po; details: in vivo
[25] = Solubility in simulated gastric fluid at pH 1.2 at 30 uM incubated for 90 mins in presence of 0.5% SDS by HPLC-UV analysis; assay type: ADME
[26] = AUC (0-t) in C57BL/6 mouse at 61 mg/kg, po and measured for 4 to 10 hrs by LC-MS/MS analysis; assay type: ADME, organism-based; set-up: time lower 4 hrs, dose 61 mg/kg, time upper 10 hrs, route po; details: in vivo
[27] = AUC (0-infinity) in C57BL/6 mouse at 61 mg/kg, po and measured upto 24 hrs by LC-MS/MS analysis; assay type: ADME, organism-based; set-up: dose 61 mg/kg, time < 24 hrs, route po; details: in vivo
[28] = Cmax in C57BL/6 mouse at 61 mg/kg, po and measured upto 24 hrs by LC-MS/MS analysis; assay type: ADME, organism-based; set-up: dose 61 mg/kg, time < 24 hrs, route po; details: in vivo
[29] = Oral bioavailability in C57BL/6 mouse plasma at 50 mg/kg and measured upto 24 hrs by LC-MS/MS analysis; assay type: ADME, organism-based
[30] = Cmax in C57BL/6 mouse plasma at 50 mg/kg,po and measured upto 24 hrs by LC-MS/MS analysis; assay type: ADME, organism-based; set-up: dose 50 mg/kg, time < 24 hrs, route po
[31] = Tmax in C57BL/6 mouse plasma at 50 mg/kg,po and measured upto 24 hrs by LC-MS/MS analysis; assay type: ADME, organism-based
[32] = Half life in C57BL/6 mouse plasma at 50 mg/kg,po and measured upto 24 hrs by LC-MS/MS analysis; assay type: ADME, organism-based
[33] = AUC (0-6 hrs) in C57BL/6 mouse plasma at 50 mg/kg,po and measured upto 24 hrs by LC-MS/MS analysis; assay type: ADME, organism-based; set-up: dose 50 mg/kg, time < 24 hrs, route po

SMILES | solubility at 1.5 h, 30 µM [4] [µg/mL] | solubility at 1.5 h, 30 µM [7] [µg/mL] | pKa at 16 h, 10000 µM [10] | Papp at 16 h, 20000 µM [11] [×10⁻⁶ cm/s] | logD at 16 h, 10000 µM [12] | solubility at 1.5 h, 30 µM [14] [µg/mL] | Papp A→B at 1 h, 5 µM [15] [×10⁻⁶ cm/s] | half-life [20] [h] | solubility at 1.5 h, 30 µM [21] [µg/mL] | solubility at 1.5 h, 30 µM [22] [µg/mL] | solubility at 1.5 h, 30 µM [25] [µg/mL] | also measured
Cc1cccc(Cl)c1C(=O)N[C@@H](Cc1ccc(-c2c(C)n(C)c(=O)n(C)c2=O)cc1)C(=O)O[C@H]1CO[C@H]2[C@@H]1OC[C@@H]2O | 126 (≈ 210 µM) | 107 (≈ 179 µM) | 7.9 | 1.68 | 1.2 | 99.6 (≈ 167 µM) | 2.5 | – | – | – | – | t1/2 [1]: 1.63 h; Drug metabolism [2]: 200000 ng/g; Drug metabolism [3]: 500 ng/mL; Tmax [5]: 0.25 h; Cmax [6]: 3193 ng/mL; Drug metabolism [8]: 200 ng/mL; AUC [9]: 2100 ng·h/mL; Drug metabolism [13]: 100000 ng/g; bioavailability [16]: 12%
COc1cc2ncnc(Nc3ccc(O[C@H]4CO[C@H]5[C@@H]4OC[C@@H]5O)c(Cl)c3)c2cc1OC | 87.9 (≈ 191 µM) | 19.8 (≈ 43.1 µM) | 5 | 7.45 | – | 65.4 (≈ 142 µM) | – | 1.19 | 45.4 (≈ 98.7 µM) | 80.8 | 56 | Cmax [17]: 30100 ng/mL; IC50 [18]: 5.3 nM; half-life [19]: 1.19 h; AUC(0-t) [23]: 44500 ng·h/mL; AUC(0-inf) [24]: 44500 ng·h/mL
COc1cc2ncnc(Nc3ccc(F)c(Cl)c3)c2cc1OC | 49.4 (≈ 148 µM) | 1.3 (≈ 3.9 µM) | 4.51 | – | – | 51.7 (≈ 155 µM) | – | 1.9 | 1.53 (≈ 4.58 µM) | 63.9 | 23.6 | AUC(0-t) [26]: 25500 ng·h/mL; AUC(0-inf) [27]: 26300 ng·h/mL; Cmax [28]: 7440 ng/mL
Cc1cccc(Cl)c1C(=O)N[C@@H](Cc1ccc(-c2c(C)n(C)c(=O)n(C)c2=O)cc1)C(=O)O | 94.7 (≈ 202 µM) | 95.4 (≈ 203 µM) | 3.4 | – | -1.1 | 91.9 (≈ 196 µM) | 1.3 | – | – | – | – | bioavailability [29]: < 1%; Cmax [30]: 425 ng/mL; Tmax [31]: 1 h; half-life [32]: 0.67 h; AUC(0-t) at 24 h [33]: 616 ng·h/mL
